Results from PubChem BioAssay (NCI).
Values joined by “and” are separate entries in the source; they are usually repeats but may differ in a detail not shown here. Equal values may be shown once.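 Values below derive from 48-hour exposures of cells grown in 96-well plates, with endpoints linearly interpolated between the two concentrations bracketing the appropriate inhibition level. GI50: concentration for 50% inhibition of growth. Definition used: TGI = concentration required for complete inhibition of growth.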

Legend:
Assay in all cases: NCI anticancer screen, dose series, 48 h
SK-MEL-2 melanoma = system: SK-MEL-2 melanoma
NCI-H460 lung = system: NCI-H460 lung
NCI-H226 lung = system: NCI-H226 lung
CCRF-CEM leukemia = system: CCRF-CEM leukemia
CAKI-1 renal = system: CAKI-1 renal
HOP-62 NSCLC = system: HOP-62 NSCLC
UACC-62 melanoma = system: UACC-62 melanoma
HS 578T breast = system: HS 578T breast
OVCAR-5 ovarian = system: OVCAR-5 ovarian
LOX IMVI melanoma = system: LOX IMVI melanoma
UACC-257 melanoma = system: UACC-257 melanoma
ACHN renal = system: ACHN renal
A549 NSCLC = system: A549 NSCLC
EKVX NSCLC = system: EKVX NSCLC

SMILES | TGI (SK-MEL-2 melanoma) | TGI (NCI-H460 lung) | TGI (NCI-H226 lung) [µM] | TGI (CCRF-CEM leukemia) [µM] | TGI (CAKI-1 renal) [µM] | TGI (HOP-62 NSCLC) | TGI (UACC-62 melanoma) | TGI (HS 578T breast) [µM] | TGI (OVCAR-5 ovarian) | TGI (LOX IMVI melanoma) [µM] | TGI (UACC-257 melanoma) [µM] | TGI (ACHN renal) [µM] | TGI (A549 NSCLC) | TGI (EKVX NSCLC) | GI50 (SK-MEL-2 melanoma) [µM] | GI50 (NCI-H460 lung) [µM] | GI50 (EKVX NSCLC) | GI50 (HOP-62 NSCLC) [µM] | GI50 (UACC-62 melanoma) | GI50 (OVCAR-5 ovarian)
S=C1SC(=Nc2ccccc2)C(=Nc2ccccc2)N1c1ccccc1 | > 100 µM | > 100 µM | > 100 | > 100 | > 100 | > 100 µM | > 100 µM | > 100 | > 100 µM |  |  |  |  |  |  |  |  |  |  | 
CC(C)=CC1C(COC(=O)c2cc3c(cc2Cl)OCO3)C1(C)C (stereo not drawn) | 40.6 µM | > 100 µM | 91.2 | > 100 | 69.7 | > 100 µM | > 100 µM | 53.8 | > 100 µM | 50 | > 100 | > 100 | > 100 µM | > 100 µM |  |  |  |  |  | 
CC1C(=O)OC2CC[N+]3(CC(=O)c4ccc(Br)cc4)CC=C(COC(=O)C(C)(O)C1(C)O)C23 (stereo not drawn) | > 375 µM | > 375 µM | > 375 | > 375 | > 375 | > 375 µM | > 375 µM |  | > 375 µM | > 375 | > 375 |  | > 375 µM | > 375 µM |  |  |  |  |  | 
N#C[S-].[Nd+3].c1cnc2c(c1)ccc1cccnc12.c1cnc2c(c1)ccc1cccnc12.c1cnc2c(c1)ccc1cccnc12 |  |  | 5.91 | 3.85 | 15.1 | 20.6 µM | 5.44 µM |  | 15.3 µM | 13.1 |  | 13 | 10.5 µM | 18.7 µM |  |  |  |  |  | 
CN1C(=O)c2ccccc2NC(=O)c2cnn(C)c21 | > 100 µM | > 100 µM | > 100 | > 100 | > 100 | > 100 µM | > 100 µM |  | > 100 µM | > 100 | > 100 |  | > 100 µM | > 100 µM |  |  |  |  |  | 
CC1=C(C)C(=O)O[C@@H]([C@](C)(O)[C@]2(O)CC[C@@]3(O)[C@@H]4C[C@H]5O[C@]56[C@@H](O)C=CC(=O)[C@]6(C)[C@H]4CC[C@]23C)C1 | 1.65 µM and 2.56 µM | 9.22 µM and 9.66 µM | 22 |  |  | 11.4 µM and 14.6 µM | 3.41 µM and 3 µM |  | 8.44 µM and 5.88 µM | 2.64 | 3.84 |  | 24 µM and 30.9 µM | 3.36 µM and 1.76 µM | 0.385 | 2 | 2.5 µM and 0.404 µM | 1.28 | 0.288 µM and 0.0848 µM | 3.55 µM and 1.47 µM
O=c1[nH]c(Nc2ccc(F)c(Cl)c2)nc2nc[nH]c12 | > 100 µM | > 100 µM | > 100 | > 100 | > 100 | > 100 µM | > 100 µM | > 100 | > 100 µM | > 100 | > 100 | > 100 | > 100 µM | > 100 µM |  |  |  |  |  | 
COc1cc(O)cc(/C=C/c2ccc(O)cc2)c1 | > 100 µM | > 100 µM | 63.1 |  | 78.2 | > 100 µM | 60.5 µM | > 100 | > 100 µM |  | > 100 | 31.2 | > 100 µM | 94.1 µM |  |  |  |  |  | 
COCO[C@@H]1C[C@H]2C(O)Nc3ccccc3C(=O)N2C1 (stereo partly drawn) | > 100 µM | > 100 µM | > 100 | > 100 | > 100 | > 100 µM | > 100 µM | > 100 | > 100 µM | > 100 | > 100 | > 100 | > 100 µM | > 100 µM |  |  |  |  |  | 
CC(C)(C)NCc1cc(Nc2ccnc3cc(Cl)ccc23)cc(-c2ccc(Cl)cc2)c1O | 4.02 µM | 8.18 µM | 22.3 | 5.77 | 10.6 | 6.38 µM | 3.85 µM | 6.37 | 16.3 µM | 5.64 | 4.11 | 15 | 20.6 µM | 14.8 µM |  |  |  |  |  | 
COCc1nc2c(OC)cc(-c3nc4nc(N5CCN(C)CC5)ccc4[nH]3)c(OC)c2[nH]1 |  | > 100 µM | > 100 | 75.9 | > 100 | > 100 µM | > 100 µM | > 100 | > 100 µM | > 100 | 61 | > 100 | > 100 µM | > 100 µM |  |  |  |  |  | 
Nc1ccccc1CCCC(=O)O | > 100 µM | > 100 µM | > 100 | > 100 | > 100 | > 100 µM | > 100 µM | > 100 | > 100 µM | > 100 | > 100 | > 100 | > 100 µM |  |  |  |  |  |  | 
Cc1cc(NC(=S)Nc2ccccc2)c(NC(=S)Nc2ccccc2)cc1C | > 31.6 µM | > 61.7 µM | > 100 | > 74.9 | > 89.6 | > 100 µM | > 100 µM |  | > 100 µM | > 100 | > 100 |  | > 100 µM | > 100 µM |  |  |  |  |  | 
O=C(O)CCCCCCC[C@@H]1S[C@H]1CCCCCCO | > 100 µM | > 100 µM | > 100 | > 100 | > 100 | > 100 µM | > 100 µM |  | > 100 µM | > 100 | > 100 |  | > 100 µM | > 100 µM |  |  |  |  |  | 
COc1cc2c(cc1OCCCOc1cc(-c3ccc(F)cc3)nc(C)n1)N=C[C@@H]1CCCN1C2=O | 35.2 µM | > 100 µM | 30.5 | 53.9 | 31.9 |  | 28.7 µM | 94.3 |  | 28.3 | 43 | 30.4 | 43 µM | 39.3 µM |  |  |  |  |  | 
CCSc1nc(N)c2c(-c3ccc(OC)c(OC)c3)c3c(nc2n1)CCCC3 |  | > 100 µM |  | > 100 | > 100 | > 100 µM | > 100 µM | > 100 | > 100 µM | > 100 | > 100 | > 100 | > 100 µM | > 100 µM |  |  |  |  |  | 
CN(C)c1ccc(/C=C2/SC(=S)NC2=O)cc1 | > 100 µM | > 100 µM | > 100 | > 100 | > 100 | > 100 µM | > 100 µM | > 100 | 72.6 µM | > 100 | > 100 | > 100 | > 100 µM | > 100 µM |  |  |  |  |  | 
Cn1c2ccccc2c2c(-c3ccccc3)[n+]3ccccc3nc21 | 40.4 µM | 59.6 µM |  | 99.8 | > 100 | 68 µM | 39.3 µM | > 100 | > 100 µM | 37.4 | 36.9 | > 100 | > 100 µM | > 100 µM |  |  |  |  |  | 
